Starred links: 1 amine or outer side, 2 acyl side, 3 side chain; linkers in the order of their positions; H or OH if unused. Positions of bridges follow the written chain, without caps; N, C: chain ends. Non-standard residues stand in square brackets, D forms with d. Residues, ends and D or L forms follow the SMILES beside them. *: point of attachment. C20 diacid = O=C(O)CCCCCCCCCCCCCCCCCCC(=O)*; γGlu = O=C(O)[C@H](CCC(=O)[*:2])N[*:1]; AEEA = NCCOCCOCC(=O)O
Assay: Assay (III) ThT fibrillation assay for physical stability
Type: physicochemical
Details: for ThT pH 4.0 lag time: pH 4.0, ThT fibrillation assay
Excerpt: Assay (III)—ThT Fibrillation Assays for the Assessment of Physical Stability of Protein formulations Low physical stability of a polypeptide may lead to amyloid fibril formation, which is observed as well-ordered, thread-like macromolecular structures in the sample eventually resulting in gel formation. This has traditionally been measured by visual inspection of the sample. However, that kind of measurement is very subjective and depending on the observer. Therefore, the application of a small molecule indicator probe is much more advantageous. Thioflavin T (ThT) is such a probe and has a distinct fluorescence signature when binding to fibrils [Naiki et al. (1989) Anal. Biochem. 177, 244-249; LeVine (1999) Methods. Enzymol. […], 274-284]. The time course for fibril formation can be described by a sigmoidal curve with the following expression [Nielsen et al. (2001) Biochemistry 40, 6036-6046]: [formula] Here, F is the ThT fluorescence at the time t. The constant t0 is the time needed to reach 50% of maximum fluorescence. […] Few of those intermediates nucleate to form a template onto which further intermediates may assembly and the fibrillation proceeds. The lag-time corresponds to the interval in which the critical mass of nucleus is built up and the apparent rate constant is the rate with which the fibril itself is formed. Sample Preparation Samples were prepared freshly before each assay. Each sample composition is described in each example. The pH of the sample was adjusted to the desired value using appropriate amounts of concentrated NaOH and HClO4 or HCl. Thioflavin T was added to the samples from a stock solution in H2O to a final concentration of 1 μM. Sample aliquots of 200 μl were placed in a 96 well microtiter plate (Packard OptiPlate™-96, white polystyrene). Usually, four or eight replica of each sample (corresponding to one test condition) were placed in one column of wells. The plate was sealed with Scotch Pad (Qiagen). Incubation and Fluorescence Measurement Incubation at given temperature, shaking and measurement of the ThT fluorescence emission were done in a Fluoroskan Ascent FL fluorescence platereader or Varioskan platereader (Thermo Labsystems). The temperature was adjusted to 37° C. The orbital shaking was adjusted to 960 rpm with an amplitude of 1 mm in all the presented data. Fluorescence measurement was done using excitation through a 444 nm filter and measurement of emission through a 485 nm filter. Each run was initiated by incubating the plate at the assay temperature for 10 min. The plate was measured every 20 minutes for a desired period of time. Between each measurement, the plate was shaken and heated as described. Data Handling The measurement points were saved in Microsoft Excel format for further processing and curve drawing and fitting was performed using GraphPad Prism. The background emission from ThT in the absence of fibrils was negligible. The data points are typically a mean of four or eight samples and shown with standard deviation error bars. Only data obtained in the same experiment (i.e. samples on the same plate) are presented in the same graph ensuring a relative measure of fibrillation between experiments. The data set may be fitted to Eq. (1). However, since full sigmodial curves in this case are not always achieved during the measurement time, the degree of fibrillation is expressed as ThT fluorescence tabulated as the mean of the samples and shown with the standard deviation at various time points. Measurement of Initial and Final Concentrations The polypeptide concentration in each of the tested formulations were measured both before application in the ThT fibrillation assay (“Initial”) and after completion of the ThT fibrillation (“After ThT assay”). Concentrations were determined by reverse HPLC methods using a pramlintide standard as a reference. Before measurement after completion 150 μl was collected from each of the replica and transferred to an Eppendorf tube. […]

Row | Compound | ThT pH 4.0 lag time (physical stability in fibrillogenesis assay) [h] | ThT pH 4.0 lag time [h]
1 | CC[C@H](C)[C@H](NC(=O)[C@@H]1CCCN1C(=O)CNC(=O)[C@H](Cc1ccccc1)NC(=O)[C@H](CC(N)=O)NC(=O)[C@H](CCC(N)=O)NC(=O)[C@H](CO)NC(=O)[C@H](CO)NC(=O)[C@H](Cc1c[nH]cn1)NC(=O)[C@H](CCCNC(=N)N)NC(=O)[C@H](CC(C)C)NC(=O)[C@H](Cc1ccccc1)NC(=O)[C@H](CCC(=O)O)NC(=O)[C@H](C)NC(=O)[C@H](CC(C)C)NC(=O)[C@H](CCCNC(=N)N)NC(=O)[C@H](CCC(N)=O)NC(=O)[C@@H](NC(=O)[C@H](C)NC(=O)[C@@H]1CSSC[C@H](NC(=O)[C@H](CCC(=O)O)NC(=O)[C@H](CCCNC(=N)N)NC(=O)[C@H](CCC(=O)O)NC(=O)CC[C@H](NC(=O)CCCCCCCCCCCCCCCCCCC(=O)O)C(=O)O)C(=O)N[C@@H](CC(N)=O)C(=O)N[C@@H]([C@@H](C)O)C(=O)N[C@@H](C)C(=O)N[C@@H]([C@@H](C)O)C(=O)N1)[C@@H](C)O)C(=O)N[C@@H](CC(C)C)C(=O)N1CCC[C@H]1C(=O)N1CCC[C@H]1C(=O)N[C@H](C(=O)N[C@@H](CC(N)=O)C(=O)N[C@H](C(=O)NCC(=O)N[C@@H](CO)C(=O)N[C@@H](CCC(N)=O)C(=O)N[C@H](C(=O)N1CCC[C@H]1C(N)=O)[C@@H](C)O)C(C)C)[C@@H](C)O [Example 162, N-alpha-[(S)-4-Carboxy-4-(19-carboxynonadecanoylamino)butyryl]-Glu-Arg-[Glu1,Glu14,Arg17,Gln21,Gln35,Pro37]-pramlintide] ({C20 diacid-γGlu}-ERECNTATCATQRLAEFLRHSSQNFGPILPPTNVGSQTP-NH2; disulfide 4-9 (inferred); C-terminus assumed) | >45 | >45
2 | CC[C@H](C)[C@H](NC(=O)[C@@H]1CCCN1C(=O)CNC(=O)[C@H](Cc1ccccc1)NC(=O)[C@H](CC(N)=O)NC(=O)[C@H](CC(N)=O)NC(=O)[C@H](CO)NC(=O)[C@H](CO)NC(=O)[C@H](Cc1c[nH]cn1)NC(=O)[C@H](Cc1c[nH]cn1)NC(=O)[C@H](CC(C)C)NC(=O)[C@H](Cc1ccccc1)NC(=O)[C@H](CCC(=O)O)NC(=O)[C@H](C)NC(=O)[C@H](CC(C)C)NC(=O)[C@H](CCCCN)NC(=O)[C@H](CCC(N)=O)NC(=O)[C@@H](NC(=O)[C@H](C)NC(=O)[C@@H]1CSSC[C@H](NC(=O)[C@H](CCCCN)NC(=O)CC[C@H](NC(=O)CCCCCCCCCCCCCCCCCCC(=O)O)C(=O)O)C(=O)N[C@@H](CC(N)=O)C(=O)N[C@@H]([C@@H](C)O)C(=O)N[C@@H](C)C(=O)N[C@@H]([C@@H](C)O)C(=O)N1)[C@@H](C)O)C(=O)N[C@@H](CC(C)C)C(=O)N1CCC[C@H]1C(=O)N1CCC[C@H]1C(=O)N[C@H](C(=O)N[C@@H](CC(N)=O)C(=O)N[C@H](C(=O)NCC(=O)N[C@@H](CO)C(=O)N[C@@H](CC(N)=O)C(=O)N[C@H](C(=O)N1CCC[C@H]1C(N)=O)[C@@H](C)O)C(C)C)[C@@H](C)O [Example 145, N-alpha-[(S)-4-Carboxy-4-(19-carboxynonadecanoylamino)butyryl]-[Lys11,Glu14,His17,Pro37]-pramlintide] ({C20 diacid-γGlu}-KCNTATCATQKLAEFLHHSSNNFGPILPPTNVGSNTP-NH2; disulfide 2-7) | >45 | >45
3 | CC[C@H](C)[C@H](NC(=O)[C@@H]1CCCN1C(=O)CNC(=O)[C@H](Cc1ccccc1)NC(=O)[C@H](CC(N)=O)NC(=O)[C@H](CC(N)=O)NC(=O)[C@H](CO)NC(=O)[C@H](CO)NC(=O)[C@H](Cc1c[nH]cn1)NC(=O)[C@H](Cc1c[nH]cn1)NC(=O)[C@H](CC(C)C)NC(=O)[C@H](Cc1ccccc1)NC(=O)[C@H](CCC(=O)O)NC(=O)[C@H](C)NC(=O)[C@H](CC(C)C)NC(=O)[C@H](CCCNC(=N)N)NC(=O)[C@H](CCC(N)=O)NC(=O)[C@@H](NC(=O)[C@H](C)NC(=O)[C@@H]1CSSC[C@H](NC(=O)CNC(=O)CC[C@H](NC(=O)CCCCCCCCCCCCCCCCCCC(=O)O)C(=O)O)C(=O)N[C@@H](CC(N)=O)C(=O)N[C@@H]([C@@H](C)O)C(=O)N[C@@H](C)C(=O)N[C@@H]([C@@H](C)O)C(=O)N1)[C@@H](C)O)C(=O)N[C@@H](CC(C)C)C(=O)N1CCC[C@H]1C(=O)N1CCC[C@H]1C(=O)N[C@H](C(=O)N[C@@H](CC(N)=O)C(=O)N[C@H](C(=O)NCC(=O)N[C@@H](CO)C(=O)N[C@@H](CC(N)=O)C(=O)N[C@H](C(=O)N1CCC[C@H]1C(N)=O)[C@@H](C)O)C(C)C)[C@@H](C)O [Example 91, N-alpha-[(S)-4-Carboxy-4-(19-carboxynonadecanoylamino)butyryl]-[Gly1,Glu14,His17,Pro37]-pramlintide] ({C20 diacid-γGlu}-GCNTATCATQRLAEFLHHSSNNFGPILPPTNVGSNTP-NH2; disulfide 2-7 (inferred)) |  | 29
4 | CC[C@H](C)[C@H](NC(=O)[C@@H]1CCCN1C(=O)CNC(=O)[C@H](Cc1ccccc1)NC(=O)[C@H](CC(N)=O)NC(=O)[C@H](CC(N)=O)NC(=O)[C@H](CO)NC(=O)[C@H](CO)NC(=O)[C@H](Cc1c[nH]cn1)NC(=O)[C@H](Cc1c[nH]cn1)NC(=O)[C@H](CC(C)C)NC(=O)[C@H](Cc1ccccc1)NC(=O)[C@H](CCC(=O)O)NC(=O)[C@H](C)NC(=O)[C@H](CC(C)C)NC(=O)[C@H](CCCNC(=N)N)NC(=O)[C@H](CCC(N)=O)NC(=O)[C@@H](NC(=O)[C@H](C)NC(=O)[C@@H]1CSSC[C@H](NC(=O)[C@H](CCCCN)NC(=O)CC[C@H](NC(=O)CCCCCCCCCCCCCCCCCCC(=O)O)C(=O)O)C(=O)N[C@@H](CC(N)=O)C(=O)N[C@@H]([C@@H](C)O)C(=O)N[C@@H](C)C(=O)N[C@@H]([C@@H](C)O)C(=O)N1)[C@@H](C)O)C(=O)N[C@@H](CC(C)C)C(=O)N1CCC[C@H]1C(=O)N1CCC[C@H]1C(=O)N[C@H](C(=O)N[C@@H](CC(N)=O)C(=O)N[C@H](C(=O)NCC(=O)N[C@@H](CO)C(=O)N[C@@H](CCC(N)=O)C(=O)N[C@H](C(=O)N1CCC[C@H]1C(N)=O)[C@@H](C)O)C(C)C)[C@@H](C)O [Example 135, N-alpha-[(S)-4-Carboxy-4-(19-carboxynonadecanoylamino)butyryl]-[Glu14,His17,Gln35,Pro37]-pramlintide] ({C20 diacid-γGlu}-KCNTATCATQRLAEFLHHSSNNFGPILPPTNVGSQTP-NH2; disulfide 2-7) | >45 | >45
5 | CC[C@H](C)[C@H](NC(=O)[C@@H]1CCCN1C(=O)CNC(=O)[C@H](Cc1ccccc1)NC(=O)[C@H](CC(N)=O)NC(=O)[C@H](C)NC(=O)[C@H](CO)NC(=O)[C@H](CO)NC(=O)[C@H](CCCNC(=N)N)NC(=O)[C@H](Cc1cnc[nH]1)NC(=O)[C@H](CC(C)C)NC(=O)[C@H](Cc1ccccc1)NC(=O)[C@H](CCC(=O)O)NC(=O)[C@H](C)NC(=O)[C@H](CC(C)C)NC(=O)[C@H](CCCNC(=N)N)NC(=O)[C@H](CCC(N)=O)NC(=O)[C@@H](NC(=O)[C@H](C)NC(=O)[C@@H]1CSSC[C@H](NC(=O)[C@H](CCCCN)NC(=O)[C@@H](CCCNC(=N)N)NC(=O)[C@@H](CCCNC(=N)N)NC(=O)COCCOCCNC(=O)COCCOCCNC(=O)CC[C@H](NC(=O)CCCCCCCCCCCCCCCCCCC(=O)O)C(=O)O)C(=O)N[C@@H](CC(N)=O)C(=O)N[C@@H]([C@@H](C)O)C(=O)N[C@@H](C)C(=O)N[C@@H]([C@@H](C)O)C(=O)N1)[C@@H](C)O)C(=O)N[C@@H](CC(C)C)C(=O)N1CCC[C@H]1C(=O)N1CCC[C@H]1C(=O)N[C@H](C(=O)N[C@@H](CC(N)=O)C(=O)N[C@H](C(=O)NCC(=O)N[C@@H](CO)C(=O)N[C@@H](CO)C(=O)N[C@H](C(=O)N[C@@H](Cc1ccc(O)cc1)C(N)=O)[C@@H](C)O)C(C)C)[C@@H](C)O [Example 38, N-alpha-[2-(2-{2-[2-(2-{2-[(S)-4-Carboxy-4-(19-carboxyheptadecanoylamino)butyrylamino]ethoxy}ethoxy)acetylamino]ethoxy}ethoxy)acetyl]-D-Arg-D-Arg-[Glu14,His17,Arg18,Ala21,Ser35]-pramlintide] ({C20 diacid-γGlu-AEEA-AEEA}-[dR][dR]KCNTATCATQRLAEFLHRSSANFGPILPPTNVGSSTY-NH2; disulfide 4-9) | >45 | 

From patent US8741836B2, “Polypeptides” (Novo Nordisk A/S, priority 2011, dated 2014)
